Values of other authors, collected in patent publication US20070287931A1, “Methods and systems for administering an appropriate pharmacological treatment to a patient for managing epilepsy and other neurological disorders” (priority 2006, published 2007).
Where two headings read alike, the source gives them in different places.

Experiments:
[1] = intranasal
seizure = conditions: intranasal
[2] = for plasma concentration per daily dose of 1 mg/kg: per daily dose of 1 mg/kg; for plasma concentration per daily dose of 1 mg/kg of primidone: per daily dose of 1 mg/kg of primidone
T-type Ca^2+ currents = conditions: in vitro
[3] = test system: dopaminergic and serotonergic neurotransmission; conditions: in vivo microdialysis
[4] = test system: cultured mouse spinal cord neurons; conditions: 10-30 μg/mL
rat hippocampal slices = conditions: 10-30 μg/mL
partial seizures = conditions: controlled trials, adjunctive therapy of partial seizures in adults, oral
sodium channels = conditions: in vitro
[5] = test system: GABA/benzodiazepine receptor ionophore complex; conditions: in vitro

## Cc1ncc2n1-c1ccc(Cl)cc1C(c1ccccc1F)=NC2 [Midazolam]
[1]
  KA (absorption rate constant): 2.46 h⁻¹
  tE1/2 (elimination half-life): 3.1 h
seizure
  time to terminate a seizure: 30 s

## O=C1NC(=O)C(c2ccccc2)(c2ccccc2)N1 [Phenyloin, diphenylhydantoin]
seizures
  concentrations giving chronic control of seizures: above 10 μg/ml
other
  concentrations at which toxic effects such as nystagmus develop: around 20 μg/ml

## CCC1(C)CC(=O)NC1=O (stereo not drawn) [ethosuximide, Ethosuximide]
[2]; long-term therapy
  plasma concentration per daily dose of 1 mg/kg: about 2 μg/ml

## CCC1(c2ccccc2)C(=O)NC(=O)NC1=O [phenobarbital, Phenobarbital]
[2]; long term therapy, adults
  plasma concentration per daily dose of 1 mg/kg: about 10 μg/ml
[2]; long term therapy
  plasma concentration per daily dose of 1 mg/kg of primidone: about 2 μg/ml

## CCC1(c2ccccc2)C(=O)NCNC1=O [primidone, Primidone]
[2]; long term therapy
  plasma concentration per daily dose of 1 mg/kg of primidone: about 1 μg/ml

## NS(=O)(=O)Cc1noc2ccccc12 [zonisamide, 1,2-benzisoxazole-3-methanesulfonamide]
T-type Ca^2+ currents
  effect on voltage-dependent, transient inward currents (T-type Ca2+ currents): reduces voltage-dependent, transient inward currents
[3]
  dopaminergic and serotonergic neurotransmission: facilitates both dopaminergic and serotonergic neurotransmission
[4]
  postsynaptic GABA or glutamate responses: without affecting
  synaptically-driven electrical activity: suppresses synaptically-driven electrical activity
Rat hippocampal slices
  neuronal or glial uptake of [3H]-GABA: without affecting
Carbonic anhydrase
  carbonic anhydrase inhibiting activity: weak
Partial seizures
  effective doses: 100 to 600 mg/day
Sodium channels
  effect on sodium channels: blocks sodium channels
[5]
  binding to the GABA/benzodiazepine receptor ionophore complex: binds to the GABA/benzodiazepine receptor ionophore complex in an allosteric fashion which does not produce changes in chloride flux
